Laboratory results published in publication PMC12528448, “Resistance to CDK7 inhibitors directed by acquired mutation of a conserved residue in cancer cells” (The EMBO Journal, 2025).
Values joined by “and” are separate entries in the source; they are usually repeats but may differ in a detail not shown here. Equal values may be shown once.

How the values were obtained:
Format in all cases: cell-based, human
22Rv1 cells = test: Growth assay (SRB), 22Rv1
Description: (§1) To determine the IC50 of drug treatments on growth, cells were seeded in 96-well culture plates. Two days after seeding, the cells were treated with increasing concentrations of drugs and incubated for 4 days. Cell number was determined using the SRB assay (Skehan et al, [1990]), and IC50 values were calculated using non-linear regression curve fitting in GraphPad Prism v10. For all other growth experiments, cells were seeded into 96-well plates, and appropriate drugs were added 2 days after seeding. Cells were then incubated in an IncuCyte Zoom live-cell imager, with cell confluency measured every 6 h. Cell doubling times were determined by non-linear curve fitting (exponential growth equation) in GraphPad Prism v10.

MCF7 cells = test: Growth assay (SRB), MCF7; conditions: for % Growth: biological reps
Outline: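 For the SRB assay, cells were treated 2 days after seeding with increasing drug concentrations for 4 days, and IC50 came from non-linear regression. For the IncuCyte runs, drugs were added 2 days post-seeding, confluency was imaged every 6 h, and doubling times were fitted to an exponential growth equation.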

22Rv1-CDK7-D97N cells = test: Growth assay (SRB), 22Rv1 CDK7-D97N knock-in pool; conditions: 22Rv1 CDK7 D99N
Description: as §1
(§2) Alt-R^TM S.p. Cas9 nuclease V3, Alt-R CRISPR-Cas9 crRNA, TracrRNA and the donor templates were obtained from Integrated DNA Technologies. […] Cells were treated with 0.7 µM of Alt-R HDR Enhancer V2 to improve HRD efficiency. Sequences of the CRISPRs in the crRNA and the donor templates are shown in the Reagents and tools table. Donor templates were designed to include non-coding substitutions to aid genome DNA PCR for identifying knock-in events and to facilitate cloning; these substitutions are noted in the Reagents and tools table.

LNCaP cells = test: Growth assay (SRB), LNCaP
Description: as §1

LNCaP-CDK7-D97N cells = test: Growth assay (SRB), LNCaP CDK7-D97N knock-in; conditions: LNCaP CDK7 D99N
Description: as §1, §2

CC(C)c1cnn2c(NCc3ccccc3-n3cccn3)nc(OC3CCCNC3)nc12 (stereo not shown) [LDC4297]
% Growth (22Rv1 cells; 22Rv1, Log10 Conc. (nM) 0.09): 67.07% and 96.13%
% Growth (22Rv1 cells; 22Rv1, Log10 Conc. (nM) 0.69): 66.51% and 88.13%
% Growth (22Rv1 cells; 22Rv1, Log10 Conc. (nM) 1.29): 42.25% and 51.76%
% Growth (22Rv1 cells; 22Rv1, Log10 Conc. (nM) 1.89): 9.89% and 17.57%
% Growth (22Rv1 cells; 22Rv1, Log10 Conc. (nM) 2.49): 11.47% and 9.07%
% Growth (22Rv1 cells; 22Rv1, Log10 Conc. (nM) 3.10): 2.69% and 4.03%
% Growth (22Rv1 cells; 22Rv1, Log10 Conc. (nM) 3.70): -4.63% and -0.97%
% Growth (22Rv1 cells; 22Rv1, Log10 Conc. (nM) 4.30): -12.52% and -9.59%
% Growth (22Rv1 cells; 22Rv1, Log10 Conc. (nM) -0.52): 95.29% and 95.79%
% Growth (22Rv1 cells; 22Rv1, Log10 Conc. (nM) 0.09, 4 days, biological reps): 97.43% and 97.15%
% Growth (22Rv1 cells; 22Rv1, Log10 Conc. (nM) 0.69, 4 days, biological reps): 91.35% and 89.50%
% Growth (22Rv1 cells; 22Rv1, Log10 Conc. (nM) 1.29, 4 days, biological reps): 69.89% and 67.14%
% Growth (22Rv1 cells; 22Rv1, Log10 Conc. (nM) 1.89, 4 days, biological reps): 34.11% and 32.16%
% Growth (22Rv1 cells; 22Rv1, Log10 Conc. (nM) 2.49, 4 days, biological reps): 25.80% and 22.21%
% Growth (22Rv1 cells; 22Rv1, Log10 Conc. (nM) 3.10, 4 days, biological reps): 19.07% and 18.11%
% Growth (22Rv1 cells; 22Rv1, Log10 Conc. (nM) 3.70, 4 days, biological reps): 12.19% and 10.17%
% Growth (22Rv1 cells; 22Rv1, Log10 Conc. (nM) 4.30, 4 days, biological reps): -1.74% and -5.36%
% Growth (22Rv1 cells; 22Rv1, Log10 Conc. (nM) -0.52, 4 days, biological reps): 96.00% and 93.75%
IC50 (MCF7 cells; 4 days, SRB): 7.3 nM
% Growth (MCF7 cells; Log10 Conc. (nM) 0.09, 4 days): 91.12% and 94.99% and 92.39%
% Growth (MCF7 cells; Log10 Conc. (nM) 0.69, 4 days): 52.29% and 66.02% and 70.05%
% Growth (MCF7 cells; Log10 Conc. (nM) 1.29, 4 days): 18.87% and 28.85% and 28.07%
% Growth (MCF7 cells; Log10 Conc. (nM) 2.49, 4 days): 9.82% and 18.59% and 16.86%
% Growth (MCF7 cells; Log10 Conc. (nM) 3.70, 4 days): -7.82% and -0.67% and -1.06%
% Growth (MCF7 cells; Log10 Conc. (nM) 4.30, 4 days): -10.31% and -1.91% and -1.69%
% Growth (MCF7 cells; Log10 Conc. (nM) -0.52, 4 days): 95.85% and 97.88% and 93.10%
% Growth (22Rv1-CDK7-D97N cells; Log10 Conc. (nM) 0.09): 99.08% and 97.65%
% Growth (22Rv1-CDK7-D97N cells; Log10 Conc. (nM) 0.69): 98.24% and 92.35%
% Growth (22Rv1-CDK7-D97N cells; Log10 Conc. (nM) 1.29): 97.25% and 79.61%
% Growth (22Rv1-CDK7-D97N cells; Log10 Conc. (nM) 2.49): 79.12% and 58.88%
% Growth (22Rv1-CDK7-D97N cells; Log10 Conc. (nM) 3.10): 40.19% and 24.40%
% Growth (22Rv1-CDK7-D97N cells; Log10 Conc. (nM) 4.30): -8.93% and -12.96%
% Growth (22Rv1-CDK7-D97N cells; Log10 Conc. (nM) -0.52): 101.69% and 97.12%
% Growth (LNCaP cells; Log10 Conc. (nM) 0.09): 103.68% and 97.62%
% Growth (LNCaP cells; Log10 Conc. (nM) 0.69): 77.76% and 65.52%
% Growth (LNCaP cells; Log10 Conc. (nM) 1.29): 48.12% and 34.31%
% Growth (LNCaP cells; Log10 Conc. (nM) 3.10): 4.14% and -5.07%
% Growth (LNCaP cells; Log10 Conc. (nM) 3.70): -12.69% and -19.92%
% Growth (LNCaP cells; Log10 Conc. (nM) 4.30): -12.08% and -21.22%
% Growth (LNCaP cells; Log10 Conc. (nM) -0.52): 92.16% and 87.19%
% Growth (LNCaP-CDK7-D97N cells; Log10 Conc. (nM) 0.09): 106.48% and 87.66%
% Growth (LNCaP-CDK7-D97N cells; Log10 Conc. (nM) 0.69): 87.77% and 86.95%
% Growth (LNCaP-CDK7-D97N cells; Log10 Conc. (nM) 1.29): 78.55% and 76.66%
% Growth (LNCaP-CDK7-D97N cells; Log10 Conc. (nM) 1.89): 68.25% and 64.95%
% Growth (LNCaP-CDK7-D97N cells; Log10 Conc. (nM) 2.49): 52.79% and 47.15%
% Growth (LNCaP-CDK7-D97N cells; Log10 Conc. (nM) 3.10): 25.80% and 16.35%
% Growth (LNCaP-CDK7-D97N cells; Log10 Conc. (nM) 3.70): 4.77% and -4.61%
% Growth (LNCaP-CDK7-D97N cells; Log10 Conc. (nM) 4.30): -8.16% and -14.41%
% Growth (LNCaP-CDK7-D97N cells; Log10 Conc. (nM) -0.52): 106.84% and 93.83%
